According to PubChem BioAssay (NCI):
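Exposure lasted 48 hours, with cells grown in 96-well plates and compounds tested at five concentrations. GI50: concentration for 50% inhibition of growth. TGI is the concentration that stops growth completely.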

Key:
Assay in all cases: NCI tumour cell line growth inhibition, 48 h
786-0 renal = test system: 786-0 renal
A498 renal = test system: A498 renal
A549 NSCLC = test system: A549 NSCLC
ACHN renal = test system: ACHN renal
BT-549 breast = test system: BT-549 breast
CAKI-1 renal = test system: CAKI-1 renal
COLO 205 colon = test system: COLO 205 colon
DU-145 prostate = test system: DU-145 prostate
EKVX NSCLC = test system: EKVX NSCLC
HCC-2998 colon = test system: HCC-2998 colon
HCT-116 colon = test system: HCT-116 colon
HCT-15 colon = test system: HCT-15 colon
HOP-92 NSCLC = test system: HOP-92 NSCLC
HS 578T breast = test system: HS 578T breast
HT29 colon = test system: HT29 colon
IGROV1 ovarian = test system: IGROV1 ovarian
KM12 colon = test system: KM12 colon
LOX IMVI melanoma = test system: LOX IMVI melanoma
M14 melanoma = test system: M14 melanoma
MALME-3M melanoma = test system: MALME-3M melanoma
MCF7 breast = test system: MCF7 breast
MDA-MB-231 breast = test system: MDA-MB-231 breast
MDA-MB-435 = test system: MDA-MB-435
NCI-H226 lung = test system: NCI-H226 lung
NCI-H23 lung = test system: NCI-H23 lung
NCI-H460 lung = test system: NCI-H460 lung
NCI-H522 lung = test system: NCI-H522 lung
NCI/ADR-RES ovarian = test system: NCI/ADR-RES ovarian
OVCAR-3 ovarian = test system: OVCAR-3 ovarian
OVCAR-4 ovarian = test system: OVCAR-4 ovarian
OVCAR-5 ovarian = test system: OVCAR-5 ovarian
OVCAR-8 ovarian = test system: OVCAR-8 ovarian
PC-3 prostate = test system: PC-3 prostate
RPMI-8226 leukemia = test system: RPMI-8226 leukemia
RXF 393 renal = test system: RXF 393 renal
SF-268 CNS = test system: SF-268 CNS
SF-295 CNS = test system: SF-295 CNS
SF-539 CNS = test system: SF-539 CNS
SK-MEL-2 melanoma = test system: SK-MEL-2 melanoma
SK-MEL-28 melanoma = test system: SK-MEL-28 melanoma
SK-MEL-5 melanoma = test system: SK-MEL-5 melanoma
SK-OV-3 ovarian = test system: SK-OV-3 ovarian
SN12C renal = test system: SN12C renal
SNB-19 CNS = test system: SNB-19 CNS
SNB-75 CNS = test system: SNB-75 CNS
SW-620 colon = test system: SW-620 colon
T-47D breast = test system: T-47D breast
TK-10 renal = test system: TK-10 renal
U251 CNS = test system: U251 CNS
UACC-257 melanoma = test system: UACC-257 melanoma
UACC-62 melanoma = test system: UACC-62 melanoma
UO-31 renal = test system: UO-31 renal

Q: CCCCCCCCc1cc[n+](CC(=O)c2ccc(Br)cc2)cc1 was tested. Which GI50 (786-0 renal) did it give?
A: 1.87 µM

Q: And the TGI (786-0 renal)?
A: 3.3 µM

Q: What about the GI50 (A498 renal) of the same compound?
A: 4.42 µM

Q: And the TGI (A498 renal)?
A: 18.1 µM

Q: What about the GI50 (A549 NSCLC) of the same compound?
A: 1.77 µM

Q: And the TGI (A549 NSCLC)?
A: 3.25 µM

Q: What about the GI50 (ACHN renal) of the same compound?
A: 1.64 µM

Q: What about the TGI (ACHN renal) of the same compound?
A: 2.99 µM

Q: What about the GI50 (BT-549 breast) of the same compound?
A: 2.44 µM

Q: And the TGI (BT-549 breast)?
A: 5.52 µM

Q: What about the GI50 (CAKI-1 renal) of the same compound?
A: 1.37 µM

Q: What about the TGI (CAKI-1 renal) of the same compound?
A: 2.84 µM

Q: And the GI50 (COLO 205 colon)?
A: 1.09 µM

Q: And the TGI (COLO 205 colon)?
A: 2.28 µM

Q: And the GI50 (DU-145 prostate)?
A: 1.51 µM

Q: And the TGI (DU-145 prostate)?
A: 2.86 µM

Q: What about the GI50 (EKVX NSCLC) of the same compound?
A: 1.38 µM

Q: And the TGI (EKVX NSCLC)?
A: 2.8 µM

Q: What about the GI50 (HCC-2998 colon) of the same compound?
A: 1.61 µM

Q: What about the TGI (HCC-2998 colon) of the same compound?
A: 2.96 µM

Q: What about the GI50 (HCT-116 colon) of the same compound?
A: 1.19 µM

Q: What about the TGI (HCT-116 colon) of the same compound?
A: 2.49 µM

Q: What about the GI50 (HCT-15 colon) of the same compound?
A: 1.64 µM

Q: And the TGI (HCT-15 colon)?
A: 3.2 µM

Q: And the GI50 (HOP-92 NSCLC)?
A: 1.47 µM

Q: What about the TGI (HOP-92 NSCLC) of the same compound?
A: 4.1 µM

Q: What about the GI50 (HS 578T breast) of the same compound?
A: 1.86 µM

Q: And the TGI (HS 578T breast)?
A: 3.75 µM

Q: What about the GI50 (HT29 colon) of the same compound?
A: 0.58 µM

Q: What about the TGI (HT29 colon) of the same compound?
A: 1.97 µM

Q: What about the GI50 (IGROV1 ovarian) of the same compound?
A: 1.09 µM

Q: What about the TGI (IGROV1 ovarian) of the same compound?
A: 2.45 µM

Q: And the GI50 (KM12 colon)?
A: 1.49 µM

Q: And the TGI (KM12 colon)?
A: 2.81 µM

Q: And the GI50 (LOX IMVI melanoma)?
A: 1.57 µM

Q: And the TGI (LOX IMVI melanoma)?
A: 2.91 µM

Q: What about the GI50 (M14 melanoma) of the same compound?
A: 1.75 µM

Q: And the TGI (M14 melanoma)?
A: 3.24 µM

Q: And the GI50 (MALME-3M melanoma)?
A: 1.69 µM

Q: What about the TGI (MALME-3M melanoma) of the same compound?
A: 3.5 µM

Q: And the GI50 (MCF7 breast)?
A: 1.52 µM

Q: What about the TGI (MCF7 breast) of the same compound?
A: 2.84 µM

Q: What about the GI50 (MDA-MB-231 breast) of the same compound?
A: 1.45 µM

Q: And the TGI (MDA-MB-231 breast)?
A: 2.85 µM

Q: And the GI50 (MDA-MB-435)?
A: 1.54 µM

Q: What about the TGI (MDA-MB-435) of the same compound?
A: 2.97 µM

Q: What about the GI50 (NCI-H226 lung) of the same compound?
A: 1.51 µM

Q: What about the TGI (NCI-H226 lung) of the same compound?
A: 3.01 µM

Q: What about the GI50 (NCI-H23 lung) of the same compound?
A: 1.48 µM

Q: What about the TGI (NCI-H23 lung) of the same compound?
A: 2.99 µM

Q: And the GI50 (NCI-H460 lung)?
A: 1.65 µM

Q: What about the TGI (NCI-H460 lung) of the same compound?
A: 3.07 µM

Q: And the GI50 (NCI-H522 lung)?
A: 1.02 µM

Q: What about the TGI (NCI-H522 lung) of the same compound?
A: 2.26 µM

Q: And the GI50 (NCI/ADR-RES ovarian)?
A: 8.77 µM

Q: What about the TGI (NCI/ADR-RES ovarian) of the same compound?
A: 21.9 µM

Q: What about the GI50 (OVCAR-3 ovarian) of the same compound?
A: 1.44 µM

Q: And the TGI (OVCAR-3 ovarian)?
A: 2.75 µM

Q: What about the GI50 (OVCAR-4 ovarian) of the same compound?
A: 1.11 µM

Q: And the TGI (OVCAR-4 ovarian)?
A: 2.31 µM

Q: And the GI50 (OVCAR-5 ovarian)?
A: 1.46 µM

Q: What about the TGI (OVCAR-5 ovarian) of the same compound?
A: 2.9 µM

Q: And the GI50 (OVCAR-8 ovarian)?
A: 1.68 µM

Q: What about the TGI (OVCAR-8 ovarian) of the same compound?
A: 3.22 µM

Q: What about the GI50 (PC-3 prostate) of the same compound?
A: 1.51 µM

Q: And the TGI (PC-3 prostate)?
A: 3 µM

Q: And the GI50 (RPMI-8226 leukemia)?
A: 1.77 µM

Q: What about the TGI (RPMI-8226 leukemia) of the same compound?
A: 3.79 µM

Q: What about the GI50 (RXF 393 renal) of the same compound?
A: 1.69 µM

Q: What about the TGI (RXF 393 renal) of the same compound?
A: 3.17 µM

Q: And the GI50 (SF-268 CNS)?
A: 1.58 µM

Q: And the TGI (SF-268 CNS)?
A: 2.92 µM

Q: And the GI50 (SF-295 CNS)?
A: 1.44 µM

Q: And the TGI (SF-295 CNS)?
A: 2.83 µM

Q: And the GI50 (SF-539 CNS)?
A: 1.61 µM

Q: What about the TGI (SF-539 CNS) of the same compound?
A: 2.96 µM

Q: What about the GI50 (SK-MEL-2 melanoma) of the same compound?
A: 1.61 µM

Q: What about the TGI (SK-MEL-2 melanoma) of the same compound?
A: 3.03 µM

Q: What about the GI50 (SK-MEL-28 melanoma) of the same compound?
A: 1.64 µM

Q: And the TGI (SK-MEL-28 melanoma)?
A: 3.04 µM

Q: What about the GI50 (SK-MEL-5 melanoma) of the same compound?
A: 1.51 µM

Q: And the TGI (SK-MEL-5 melanoma)?
A: 2.89 µM

Q: What about the GI50 (SK-OV-3 ovarian) of the same compound?
A: 1.53 µM

Q: And the TGI (SK-OV-3 ovarian)?
A: 2.95 µM

Q: And the GI50 (SN12C renal)?
A: 1.55 µM

Q: And the TGI (SN12C renal)?
A: 2.98 µM

Q: What about the GI50 (SNB-19 CNS) of the same compound?
A: 1.59 µM

Q: And the TGI (SNB-19 CNS)?
A: 3.31 µM

Q: What about the GI50 (SNB-75 CNS) of the same compound?
A: 1.28 µM

Q: What about the TGI (SNB-75 CNS) of the same compound?
A: 2.54 µM

Q: What about the GI50 (SW-620 colon) of the same compound?
A: 1.41 µM

Q: And the TGI (SW-620 colon)?
A: 2.77 µM

Q: And the GI50 (T-47D breast)?
A: 1.64 µM

Q: What about the TGI (T-47D breast) of the same compound?
A: 3.14 µM

Q: And the GI50 (TK-10 renal)?
A: 1.4 µM

Q: And the TGI (TK-10 renal)?
A: 2.7 µM

Q: And the GI50 (U251 CNS)?
A: 1.47 µM

Q: And the TGI (U251 CNS)?
A: 2.79 µM

Q: And the GI50 (UACC-257 melanoma)?
A: 1.64 µM

Q: And the TGI (UACC-257 melanoma)?
A: 3.11 µM

Q: And the GI50 (UACC-62 melanoma)?
A: 1.44 µM

Q: And the TGI (UACC-62 melanoma)?
A: 2.76 µM

Q: What about the GI50 (UO-31 renal) of the same compound?
A: 1.49 µM

Q: And the TGI (UO-31 renal)?
A: 3.19 µM
